{"source": "patent US5420158A", "about": "“Naphthylalkylamines” (Adir et Compagnie, priority 1992, dated 1995)", "test_system": "Xenopus melanophores", "test": "Melatonin-antagonist activity with respect to pigment aggregation", "type": "cell-based, Xenopus laevis", "settings": "compound at 10^-7 M, melatonin 10^-8 M", "protocol": "Melatonin is known to participate in regulation of the skin color of amphibians such as Xenopus (Xenopus laevis). It causes condensation of the […] granules in the melanophores of the dermis (Sugden D. European Journal of Pharmacology, vol. 213, pp: 405-408 (1992)).\nThe compounds of the invention were tested for their capacity to inhibit the effect of melatonin on Xenopus melanophores.\n(According to the method described in Sugden D. Br. J. Pharmacol. vol. 104, pp 922-927, (1991)).\nThe neural crest of Xenopus embryos is dissected and the cells are isolated. The melanophores which appear after 2-3 days of culture are rapidly visible among the other cells emanating from the neural crest. The melanophores are cultured in Leibovitz L-15 medium (Gibco) and diluted (1/1) with deionized water containing 10% of fetal calf serum, 200 IU/cm^3 of penicillin, 200 μg/cm^3 of streptomycin and 2.5 μg/cm^3 of amphotericin B.\nThe experiments on the melanophores are carried out between days 7 and 12 of the culture.\nThe response of the isolated melanophores to melatonin is quantified by measuring the pigmented area using a computer-assisted image analyzer. The test compounds are added to the culture medium 10 to 15 min before the measurement."}
{"smiles": "O=C(NCCc1cccc2ccccc12)C1CCC1", "note": "[Example 1, N-[2-(1-naphthyl)ethyl]cyclobutanecarboxamide]", "values": [{"measurement": "antagonism of the action of melatonin on pigment aggregation", "value": "significantly antagonizes the action of melatonin"}]}
